ChEMBL document CHEMBL4152366, “Design, synthesis, and biological evaluation of novel selective peptide inhibitors of 11β-hydroxysteroid dehydrogenase 1” (Bioorg Med Chem, 2018)

Columns and labels:
[1] = target: T1, 11-beta-hydroxysteroid dehydrogenase 1 (Homo sapiens, UniProt P28845); assay: Inhibition of human 11beta-HSD1 expressed in HEK293 cell lysates using radiolabeled cortisone as substrate incubated for 10 mins by scintillation counting method
Target sequence in this assay (P28845 whole entry): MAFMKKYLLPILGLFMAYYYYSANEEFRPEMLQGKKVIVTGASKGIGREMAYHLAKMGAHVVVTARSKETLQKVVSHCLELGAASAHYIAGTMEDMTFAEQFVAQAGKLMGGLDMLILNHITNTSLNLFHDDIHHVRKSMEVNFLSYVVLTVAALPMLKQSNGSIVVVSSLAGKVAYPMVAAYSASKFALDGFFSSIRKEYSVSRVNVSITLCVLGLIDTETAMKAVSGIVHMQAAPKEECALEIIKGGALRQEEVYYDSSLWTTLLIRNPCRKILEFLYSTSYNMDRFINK

[2] = target: T2, 17-beta-hydroxysteroid dehydrogenase type 2 (Homo sapiens) (UniProt P37059); assay: Inhibition of human 17beta-HSD2 expressed in HEK293 cell lysates assessed as remaining enzyme activity at 1 uM using radiolabeled estradiol as substrate incubated for 10 mins by scintillation counting method relative to control; values are per cent of control
T2 sequence (whole entry): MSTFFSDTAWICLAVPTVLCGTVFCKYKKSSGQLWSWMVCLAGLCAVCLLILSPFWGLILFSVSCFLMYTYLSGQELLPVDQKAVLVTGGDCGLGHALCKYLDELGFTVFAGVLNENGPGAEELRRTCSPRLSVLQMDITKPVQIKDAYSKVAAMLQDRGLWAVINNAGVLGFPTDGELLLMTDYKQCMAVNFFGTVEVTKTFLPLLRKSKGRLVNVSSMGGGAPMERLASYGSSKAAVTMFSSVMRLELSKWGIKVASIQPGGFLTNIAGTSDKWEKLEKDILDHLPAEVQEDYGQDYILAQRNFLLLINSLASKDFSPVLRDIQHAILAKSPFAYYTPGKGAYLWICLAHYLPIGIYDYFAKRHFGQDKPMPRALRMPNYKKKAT

[3] = target: T3, 11-beta-hydroxysteroid dehydrogenase type 2 (Homo sapiens) (UniProt P80365); assay: Inhibition of human 11beta-HSD2 expressed in HEK293 cell lysates assessed as remaining enzyme activity at 1 uM using radiolabeled cortisol as substrate incubated for 10 mins in presence of NAD+ by scintillation counting method relative to control; values are per cent of control
T3 sequence (whole entry): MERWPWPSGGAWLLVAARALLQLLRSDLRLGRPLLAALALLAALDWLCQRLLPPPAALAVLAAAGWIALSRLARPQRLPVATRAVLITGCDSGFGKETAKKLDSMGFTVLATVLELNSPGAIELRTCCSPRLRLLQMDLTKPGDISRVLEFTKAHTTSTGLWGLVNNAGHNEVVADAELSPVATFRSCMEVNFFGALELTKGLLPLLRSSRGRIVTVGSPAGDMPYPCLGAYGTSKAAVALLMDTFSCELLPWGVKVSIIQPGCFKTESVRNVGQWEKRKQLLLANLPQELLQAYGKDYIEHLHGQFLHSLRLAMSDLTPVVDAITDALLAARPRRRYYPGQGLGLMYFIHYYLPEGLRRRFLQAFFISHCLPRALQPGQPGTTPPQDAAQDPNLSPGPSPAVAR

[4] = target: T4, 17-beta-hydroxysteroid dehydrogenase type 1 (Homo sapiens) (UniProt P14061); assay: Inhibition of human 17beta-HSD1 expressed in HEK293 cell lysates assessed as remaining enzyme activity at 1 uM using radiolabeled estrone as substrate incubated for 10 mins by scintillation counting method relative to control; values are per cent of control
T4 sequence (whole entry): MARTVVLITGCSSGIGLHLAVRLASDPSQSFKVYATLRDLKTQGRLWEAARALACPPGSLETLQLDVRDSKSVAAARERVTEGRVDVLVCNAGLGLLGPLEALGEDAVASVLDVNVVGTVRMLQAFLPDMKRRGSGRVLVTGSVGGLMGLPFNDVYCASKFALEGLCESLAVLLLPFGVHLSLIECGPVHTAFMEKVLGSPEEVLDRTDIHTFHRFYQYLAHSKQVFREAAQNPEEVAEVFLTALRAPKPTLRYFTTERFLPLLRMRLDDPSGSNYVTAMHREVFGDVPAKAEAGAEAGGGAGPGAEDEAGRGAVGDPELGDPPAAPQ

[5] = target: T1, 11-beta-hydroxysteroid dehydrogenase 1; assay: Inhibition of 11beta-HSD1 in human primary keratinocytes assessed as reduction in conversion of […] incubated for 48 hrs by enzyme immunoassay; format: cell-based
Target sequence in this assay (P28845 whole entry, looked up): as the sequence (P28845 whole entry) above

[6] = target: T1, 11-beta-hydroxysteroid dehydrogenase 1; assay: Inhibition of 11beta-HSD1 in human skin assessed as reversal of cortisone-mediated decrease in dermal total collagen content by picrosirius red histochemical staining based assay
Target sequence in this assay (P28845 whole entry, looked up): as the sequence (P28845 whole entry) above

[7] = target: T1, 11-beta-hydroxysteroid dehydrogenase 1; assay: Inhibition of 11beta-HSD1 in human skin assessed as reversal of cortisone-mediated decrease in dermal total collagen content at 200 uM by picrosirius red histochemical staining based assay
Target sequence in this assay (P28845 whole entry, looked up): as the sequence (P28845 whole entry) above

[8] = target: T1, 11-beta-hydroxysteroid dehydrogenase 1; assay: Inhibition of 11beta-HSD1 in human skin assessed as reversal of cortisone-mediated decrease in dermal total collagen content at 10 to 100 uM by picrosirius red histochemical staining based assay
Target sequence in this assay (P28845 whole entry, looked up): as the sequence (P28845 whole entry) above

SMILES | IC50 [1] [µM] | residual activity [2] [%] | residual activity [3] [%] | residual activity [4] [%] | inhibition [5] | inhibition [6] | inhibition [7] [%] | inhibition [8] [%]
CC(=O)N[C@@H](Cc1ccc(F)cc1)C(=O)N1CCC[C@@H]1C(=O)NC1C2CC3CC(C2)CC1C3 (stereo partly drawn) | 0.266 | > 90 | > 90 | > 90 | Dose-dependent effect |  |  | 
CC(=O)N[C@@H](Cc1ccc(C#N)cc1)C(=O)N1CCC[C@@H]1C(=O)NC1C2CC3CC(C2)CC1C3 (stereo partly drawn) | 0.197 | > 90 | > 90 | > 90 | Dose-dependent effect | Dose-dependent effect | 100 | 18
CCOc1ccc(C[C@H](N)C(=O)N2CCC[C@@H]2C(=O)NC2C3CC4CC(C3)CC2C4)cc1 (stereo partly drawn) | 0.373 | > 90 | > 90 | > 90 | Dose-dependent effect |  |  | 
